Assay results: PubChem BioAssay (NCI)
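Method: 48-hour compound exposure of cells in 96-well plates, five concentrations, linear interpolation of endpoints. GI50 marks 50% less growth. Definition used: TGI = concentration required for complete inhibition of growth.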

Tests used:
Assay in all cases: NCI anticancer screen, dose series, 48 h
[1] = test system: RXF 393 renal
[2] = test system: NCI-H460 lung
[3] = test system: IGROV1 ovarian
[4] = test system: OVCAR-3 ovarian
[5] = test system: OVCAR-4 ovarian
[6] = test system: COLO 205 colon
[7] = test system: SF-295 CNS
[8] = test system: LOX IMVI melanoma
[9] = test system: UACC-257 melanoma

| SMILES | GI50 [1] [µM] | TGI [1] [µM] | GI50 [2] [µM] | TGI [2] [µM] | GI50 [3] [µM] | TGI [3] [µM] | GI50 [4] [µM] | TGI [4] [µM] | GI50 [5] [µM] | TGI [5] [µM] | GI50 [6] [µM] | TGI [6] [µM] | GI50 [7] [µM] | TGI [7] [µM] | GI50 [8] [µM] | TGI [8] [µM] | GI50 [9] [µM] | TGI [9] [µM] |
| --- | --- | --- | --- | --- | --- | --- | --- | --- | --- | --- | --- | --- | --- | --- | --- | --- | --- | --- |
| Fc1ccc2[nH]c3c(NCCCN4CCOCC4)ncnc3c2c1 | 34.5 | > 100 | 38.5 | > 100 | 49.1 | > 100 | > 100 | > 100 | 65.8 | > 100 | 20.7 | 42.4 | 61.2 | > 100 | 30.7 | > 100 | – | – |
| CC[C@H](CC#N)OC(=O)N[C@@H](C)c1cccc(NC(=O)Nc2ccc(-c3cnco3)c(OC)c2)c1 | 0.266 | > 22.9 | 0.0328 | 17.1 | 0.0514 | 24.2 | 0.0894 | 45 | 14.1 | 71.7 | 0.0203 | 18 | 0.0532 | 13 | 0.0242 | 24.8 | 0.0922 | 23.1 |
| CC(=O)OCC1OC(n2ccc(=O)[nH]c2=O)C(OC(C)=O)C1OC(C)=O (configuration not stated) | > 100 | > 100 | > 100 | > 100 | > 100 | > 100 | > 100 | > 100 | > 100 | > 100 | > 100 | > 100 | > 100 | > 100 | > 100 | > 100 | > 100 | > 100 |
| Clc1nc(Cl)c2c(ncn2C/C=C\Cn2cnc3c(Cl)nc(Cl)nc32)n1 | 0.351 | 0.906 | 2.34 | 5.65 | 0.269 | 0.771 | 1.68 | 3.04 | 1.73 | 3.28 | 1.46 | 3.01 | 8.99 | 21.1 | 1.36 | 2.85 | 1.48 | 5.9 |
| CO/N=C(\C)c1ccc(Nc2cc(-c3ccccc3)nc3c(O)cccc23)cc1 | 14.2 | 30 | – | – | 13.5 | 45.2 | 16.4 | 32.4 | 19.9 | 50.7 | 17.2 | 34.5 | 12.7 | 27.9 | 14.3 | 27.9 | 15.9 | 32.3 |
| CC(C)NC(=O)OCCS(=O)c1c(Cl)c(Cl)nn1C (configuration not stated) | – | – | – | > 100 | – | > 100 | – | > 100 | – | > 100 | – | 44 | – | > 100 | – | > 100 | – | – |
| Oc1ccc(CCCCCCc2ccc(O)cc2)cc1 | 8.03 | 21.5 | 5.88 | 18.9 | 8.83 | 28.4 | 6.02 | 17.8 | 14.4 | > 46.9 | 15.2 | 29.4 | 3.18 | 15.5 | 1.5 | 17.9 | 13.9 | 28.4 |
| CCCCCCCCCCCC[n+]1ccc(CCCCCCCCC)cc1 | 1.36 | 2.86 | – | – | – | – | – | – | – | – | – | – | – | – | – | – | – | – |
| Nc1cc(N)c(N)cc1N | 1.73 | 3.19 | 10.8 | 26.2 | 2.17 | 4.83 | 1.97 | 4.46 | 1.79 | 3.35 | 1.81 | 3.43 | 1.7 | 3.31 | 1.82 | 3.75 | 1.55 | 3.05 |
| C=C(C)C(=O)O[C@H]1[C@H]2[C@H](OC(=O)[C@H]2C)[C@H](O)[C@@H](C)[C@@H]2C=CC(=O)[C@]21C | – | 4.13 | – | 3.72 | – | 7 | – | 18.4 | – | 19.9 | – | 9.97 | – | 18.7 | – | 7.74 | – | 7.73 |
| Clc1nc(Cl)c2ncn(Cc3ccc(COc4cccc(OCc5ccc(Cn6cnc7c(Cl)nc(Cl)nc76)cc5)c4)cc3)c2n1 | > 100 | > 100 | > 100 | > 100 | 69.4 | > 100 | 10.7 | 56.6 | 15.1 | > 100 | > 100 | > 100 | 98.4 | > 100 | 2.47 | 12.7 | 24.9 | > 100 |
| CC12CCC(=O)C=C1CCC1C2C(O)CC2(C)C(c3csc(N)n3)CCC12 (configuration not stated) | – | > 100 | – | – | – | > 100 | – | > 100 | – | > 100 | – | > 100 | – | > 100 | – | > 100 | – | > 100 |
| CCCCn1cnc2c(SC)ncnc21 | – | > 100 | – | > 100 | – | > 100 | – | > 100 | – | > 100 | – | > 100 | – | > 100 | – | > 100 | – | > 100 |
| COc1ccc2c(c1)OC(N(C(C)=O)C(C)=O)=C(C#N)C2c1ccc(F)cc1 (configuration not stated) | 1.77 | 9.63 | 1.88 | 45.5 | 2.82 | > 100 | 0.676 | 7.5 | 7.93 | > 100 | 2.2 | 7.26 | 2.83 | > 100 | 3.26 | > 100 | 23 | > 100 |
| CC(CNC(Cc1ccccc1)c1ccccc1)NC(Cc1ccccc1)c1ccccc1 (configuration not stated) | 1.66 | 3.19 | 2.03 | 4.06 | 2.76 | 10.5 | 2.07 | 4.56 | 2.59 | 10.6 | 1.66 | 3.46 | 1.52 | 3.27 | 1.62 | 2.98 | 2.67 | 6.9 |
| C[C@H]1[C@H](C)CC[C@]2(C(=O)O)CC[C@]3(C)C(=CC[C@@H]4[C@@]5(C)C/C(=C/c6cccnc6)[C@H](O)C(C)(C)[C@@H]5CC[C@]43C)[C@H]12 | 13.7 | 36.6 | 8.88 | 26.6 | 26.4 | > 100 | 13.5 | 31.1 | 43 | > 100 | 14.6 | 32.4 | 4.83 | 25.8 | 13.4 | 28.1 | 21 | 81.2 |
| CC(=O)O[C@@H]1CC2C(C)(C)CCCC2(C)C2=C1C(=O)C(C(C)C)=CC2=O (some centres not stated) | 0.757 | 2.27 | 0.423 | 1.9 | 1.49 | 4.87 | 1.51 | 3.36 | 0.838 | 6.58 | 1.88 | 4.11 | 1.77 | 3.61 | 1.59 | 3.48 | 1.55 | 4.29 |
| NC(C(=O)[O-])C(=O)[O-].NC1CCCCC1N.[Pt+4] | – | – | 2.29 | 14.7 | 16.3 | > 100 | 2.45 | 24 | 11.3 | > 100 | 2.84 | > 100 | 2.27 | 32.5 | 2.85 | > 100 | > 100 | > 100 |
| Nc1nc2c(c(=O)[nH]1)CN(c1ccc(S(N)(=O)=O)cc1)CN2 | – | – | – | > 100 | – | > 100 | – | > 100 | – | > 100 | – | > 100 | – | > 100 | – | > 100 | – | > 100 |
| C[C@@H]1CN(CC(=O)N2CC(C)(C)c3nc(CO)c(Cc4ccc(F)cc4)cc32)[C@@H](CN2CCOC[C@H]2C)CN1 | – | – | 45.9 | > 100 | > 100 | > 100 | > 100 | > 100 | 20.6 | > 100 | 21.3 | 41.4 | 61.6 | > 100 | 17.5 | 33.1 | 15.3 | 31.1 |
| COc1ccc(-c2cn(-c3ccccc3)c(-c3ccccc3)n2)cc1OC | – | – | 3.57 | 14.9 | 2.72 | 9.3 | 2.2 | 5.07 | 10.9 | 32.9 | 2.68 | 12.3 | 3.5 | 17.1 | 3.08 | 11.7 | 4.84 | 16.8 |
| COc1cc(Nc2nc(N[C@H]3CCCC[C@@H]3N)nc3cc[nH]c(=O)c23)cc(OC)c1 | 0.403 | 2.76 | 1.28 | 4.21 | – | – | 8.71 | 21.8 | 5.93 | 20 | 1.04 | 2.49 | 1.5 | 4.46 | 0.468 | 1.77 | 1.55 | 3.33 |
| COc1ccc2c3c(c(=O)n(C)c2c1OC)C=CC(C)(C)O3 | – | > 100 | – | – | – | > 100 | – | > 100 | – | 41.3 | – | 40.2 | – | > 100 | – | > 100 | – | > 100 |
